From US7189756B2, “Pyrrolidine derivatives” (Hoffman-La Roche Inc., priority 2000, dated 2007)

| SMILES | melting point [°C] |
| --- | --- |
| O=C(Nc1ccccc1F)N1C[C@H](S)C[C@H]1CNCc1cc(F)ccc1F | 126 |
| CCOC(=O)c1nnn(C[C@@H]2C[C@@H](S)CN2S(=O)(=O)c2ccc3ccccc3c2)c1C | 95 |
| Nc1c(-c2ccccc2)nnn1C[C@@H]1C[C@@H](S)CN1S(=O)(=O)c1ccc2ccccc2c1 | 70 |
| Cc1c(-c2ccccc2)nnn1C[C@@H]1C[C@@H](S)CN1S(=O)(=O)c1ccc2ccccc2c1 | 146 |
| CS(=O)(=O)N1C[C@H](S)C[C@H]1COCC1CCCCC1 | 68 to 69 |
| CS(=O)(=O)N1C[C@H](S)C[C@H]1Cn1nnc(C(N)=O)c1N | 189 |
